Reference: ChEMBL document CHEMBL1139146, “An analogue of AICAR with dual inhibitory activity against WNV and HCV NTPase/helicase: synthesis and in vitro screening of 4-carbamoyl-5-(4,6-diamino-2,5-dihydro-1,3,5-triazin-2-yl)imidazole-1-beta-D-ribofuranoside” (Bioorg Med Chem Lett, 2007)
pIC50: −log10 of the molar value. Activity calls are given as the source filed them. The calls are words filed in the database; no cut-off is given here.

Legend:
[1] = Inhibition of helicase activity of Dengue virus NTPase/helicase expressed in Escherichia coli using DNA substrate
[2] = Inhibition of helicase activity of West Nile virus NTPase/helicase expressed in Vero E6 cells using DNA substrate; assay type: cell-based
[3] = tested on: Hepacivirus hominis; experiment: Inhibition of helicase activity of Hepatitis C virus NTPase/helicase expressed in Escherichia coli using RNA substrate
[4] = Inhibition of helicase activity of Japanese encephalitis virus NTPase/helicase expressed in Escherichia coli using DNA substrate
[5] = Inhibition of helicase activity of Hepatitis C virus NTPase/helicase expressed in Escherichia coli using DNA substrate; design: species or system Hepacivirus hominis
[6] = tested on: Dengue virus; experiment: Inhibition of helicase activity of Dengue virus NTPase/helicase expressed in Escherichia coli using RNA substrate
[7] = tested on: Vero; experiment: Inhibition of helicase activity of West Nile virus NTPase/helicase expressed in Vero E6 cells using RNA substrate; assay type: cell-based
[8] = tested on: Japanese encephalitis virus; experiment: Inhibition of helicase activity of Japanese encephalitis virus NTPase/helicase expressed in Escherichia coli using RNA substrate

For `NC(=O)c1ncn([C@@H]2O[C@H](CO)[C@@H](O)[C@H]2O)c1C1N=C(N)NC(N)=N1`, the pIC50 [1] was < 3.37, the pIC50 [2] was 4.64 and the Activity [3] was “inactive”. The pIC50 [4] was < 3.30, the pIC50 [5] was 4.43 and the Activity [6] was “inactive”. The Activity [7] was “inactive” and the Activity [8] was “inactive”.
